# From patent US8101760B2, “Glucocorticoid receptor modulator and methods of use” (Eli Lilly and Company, priority 2007, dated 2012)
# Like-named read-outs stand apart in the source and are kept apart here.
# Test system: carrageenan-induced paw edema
# Assay: Carrageenan-induced paw edema (CPE) model
# Assay type: in vivo, rat
# Details: for ED50: rat, oral gavage 2 h before carrageenan, 3 h after injection, mean of 5
# Text: Carrageenans are a group of polysaccharides which can induce an acute inflammatory response in animals. Cardinal signs of inflammation including edema, hyperalgesia and erythema are developed in the injection site immediately following injection. The CPE model (Winter et al., Proc. Soc. Exp. Biol. Med. 111, 544-547, 1962) is a recognized model of inflammation and can be used to evaluate the antinflammatory effects of glucocorticoid receptor ligands.
# To evaluate the anti-inflammatory effects of Compound (I), the Compound (I) is formulated in a vehicle comprising 0.5% carboxymethyl cellulose and 0.25% Tween 80 then administered orally via gavage to male Sprague-Dawley rats (180-200 g) (Harlan Industries, Indianapolis, Ind.). For comparison, prednisolone is administered orally in the same vehicle. Two hours later, 1% carrageenan in 50 μL of 0.9% pyrogen free saline is injected into the subplantar regions of the right hind paw. Rats are euthanized by CO2 at 3 hours after the carrageenan injection. Paws are removed then weighed using a microbalance. Paws are then immediately immersed into liquid nitrogen until frozen. Frozen paws are dissected by making several cuts on the paw surface then centrifuged to extract the exudates. Exudate levels of IL-1β, a cytokine generated during the inflammatory response, is then measured by ELISA (R&D Systems, Inc., Catalog No. RLB00) using standard techniques. Total paw protein is also measured using a protein assay kit (Pierce Biotechnology, Inc., Rockford, Ill., U.S.A., Catalog No. 1856210) and the absolute level of IL-1β is normalized to yield a concentration value of ng IL-1β/mg total protein.
structure (smiles),measurement,setting,value
"C[C@]12C=CC(=O)C=C1CC[C@@H]1[C@@H]2[C@@H](O)C[C@@]2(C)[C@H]1CC[C@]2(O)C(=O)CO [prednisolone, reference compound]",potency relative to Compound (I) (fold less potent),"rat CPE model, similar conditions",about 5 fold
same,ED50,"read-out: ED50, inhibition of carrageenan induced paw weight gain",~6.6 mg/kg
same,ED50,"read-out: ED50, reduction of paw exudate levels of IL-1β",< 1 mg/kg
